Assay results as given in US8247211B2, “Glycopeptide antibiotics” (American Cyanamid Company, priority 2001, dated 2012).
Values after ≈ are worked out from the molar mass of the structure shown.

What was measured:
Assay in all cases: In vitro antibacterial evaluation: minimum inhibitory concentration (MIC), broth dilution method
Type in all cases: cell-based
[1] = tested on: Streptococcus sp.; details: 18 hours at 35° C.
In short: (§1)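 Following NCCLS approved standard M7-A2, compounds are serially diluted from 64 to 0.06 μg/mL in Muller-Hinton II […] and inoculated at 5×10^5 CFU/mL; the MIC is the minimum concentration at which growth is inhibited.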

[2] = tested on: Staphylococcus sp.; details: for MIC Staphylococcus aureus (ATCC 29213): strain ATCC 29213; for MIC Staphylococcus aureus (GC 1131): strain GC 1131; for MIC Staphylococcus aureus (GC 3051): strain GC 3051; for MIC Staphylococcus aureus (GC 3053): strain GC 3053; for MIC Staphylococcus aureus (GC 4541): strain GC 4541; for MIC Staphylococcus aureus (GC 4542): strain GC 4542; for MIC Staphylococcus aureus-SMITH (GC 4543): strain GC 4543; for MIC Staphylococcus aureus (GC 4544): strain GC 4544; for MIC Staphylococcus aureus (GC 4545): strain GC 4545; for MIC Staphylococcus haemolyticus (GC 4546): strain GC 4546; for MIC Coagulase Negative Staphylococcus (GC 4547): strain GC 4547; for MIC Coagulase Negative Staphylococcus (GC 4548): strain GC 4548; for MIC Coagulase Negative Staphylococcus (GC 4549): strain GC 4549; for MIC Coagulase Negative Staphylococcus (GC 4551): strain GC 4551
In short: as §1

[3] = tested on: Enterococcus sp.; details: 18 hours at 35° C.
In short: as §1

[4] = tested on: Escherichia coli; details: 18 hours at 35° C.
In short: as §1

[5] = Streptococcus agalactiae (GC 4564)
[6] = Streptococcus pneumoniae (ATCC 6301)
[7] = Streptococcus pneumoniae (GC 1894)
[8] = Streptococcus pneumoniae (GC 4565)
[9] = Streptococcus pyogenes (GC 4563)
[10] = broth dilution, inoculum 5×10^5 CFU/mL
[11] = Enterococcus faecalis (ATCC 29212)
[12] = Enterococcus faecalis (GC 2242)
[13] = Enterococcus faecalis (GC 2691)
[14] = Enterococcus faecalis (GC 3059)
[15] = Enterococcus faecalis (GC 4552)
[16] = Enterococcus faecalis (GC 4553)
[17] = Enterococcus faecalis (GC 4554)
[18] = Enterococcus faecalis (GC 6189)

SMILES: CC(c1ccccc1)C1NC(=O)CNC(=O)C(CO)NC(=O)C(C(O)C2CNC(=N)N2C2OC(CO)C(O)C(O)C2O)NC(=O)C(C(O)C2CNC(=N)N2)NC(=O)C(Cc2ccc(OC3OC(CO)C(OC4OC5COC(C)(c6ccc(F)cc6)OC5C(O)C4O)C(O)C3O)cc2)NC1=O (stereo not drawn) [Example 216, Cyclo[glycyl-β-methylphenylalanyl-O-[4-O-[4,6-O-(4-fluoro-α-methylbenzylidene)hexopyranosyl]hexopyranosyl]tyrosyl-3-(2-iminoimidazolidin-4-yl)seryl-3-(3-hexopyranosyl-2-iminoimidazolidin-4-yl)serylseryl]]
- MIC Streptococcus agalactiae (GC 4564) [1, 5]: 0.5 µg/mL (≈ 0.353 µM)
- MIC Streptococcus pneumoniae (ATCC 6301) [1, 6]: 0.25 µg/mL (≈ 0.177 µM)
- MIC Streptococcus pneumoniae (GC 1894) [1, 7]: <0.06 µg/mL
- MIC Streptococcus pneumoniae (GC 4565) [1, 8]: 0.25 µg/mL (≈ 0.177 µM)
- MIC Streptococcus pyogenes (GC 4563) [1, 9]: 0.5 µg/mL (≈ 0.353 µM)
- MIC Streptococcus agalactiae (GC 4564) [1, 10]: 0.5 µg/mL (≈ 0.353 µM)
- MIC Streptococcus pneumoniae (ATCC 6301) [1, 10]: 0.25 µg/mL (≈ 0.177 µM)
- MIC Streptococcus pneumoniae (GC 1894) [1, 10]: <0.06 µg/mL
- MIC Streptococcus pneumoniae (GC 4565) [1, 10]: 0.25 µg/mL (≈ 0.177 µM)
- MIC Streptococcus pyogenes (GC 4563) [1, 10]: 0.5 µg/mL (≈ 0.353 µM)
- MIC Staphylococcus aureus (ATCC 29213) [2]: 2 µg/mL (≈ 1.41 µM)
- MIC Staphylococcus aureus (GC 1131) [2]: 2 µg/mL (≈ 1.41 µM)
- MIC Staphylococcus aureus (GC 3051) [2]: 2 µg/mL (≈ 1.41 µM)
- MIC Staphylococcus aureus (GC 3053) [2]: 2 µg/mL (≈ 1.41 µM)
- MIC Staphylococcus aureus (GC 4541) [2]: 1 µg/mL (≈ 0.707 µM)
- MIC Staphylococcus aureus (GC 4542) [2]: 1 µg/mL (≈ 0.707 µM)
- MIC Staphylococcus aureus-SMITH (GC 4543) [2]: 2 µg/mL (≈ 1.41 µM)
- MIC Staphylococcus aureus (GC 4544) [2]: 2 µg/mL (≈ 1.41 µM)
- MIC Staphylococcus aureus (GC 4545) [2]: 1 µg/mL (≈ 0.707 µM)
- MIC Staphylococcus haemolyticus (GC 4546) [2]: 1 µg/mL (≈ 0.707 µM)
- MIC Coagulase Negative Staphylococcus (GC 4547) [2]: 2 µg/mL (≈ 1.41 µM)
- MIC Coagulase Negative Staphylococcus (GC 4548) [2]: 1 µg/mL (≈ 0.707 µM)
- MIC Coagulase Negative Staphylococcus (GC 4549) [2]: 1 µg/mL (≈ 0.707 µM)
- MIC Coagulase Negative Staphylococcus (GC 4551) [2]: 2 µg/mL (≈ 1.41 µM)
- MIC Coagulase Negative Staphylococcus (GC 6257) ([2]; strain GC 6257): 1 µg/mL (≈ 0.707 µM)
- MIC Enterococcus avium (GC 4558) ([3]; Enterococcus avium (GC 4558)): 4 µg/mL (≈ 2.83 µM)
- MIC Enterococcus faecalis (ATCC 29212) [3, 11]: 4 µg/mL (≈ 2.83 µM)
- MIC Enterococcus faecalis (GC 2242) [3, 12]: 4 µg/mL (≈ 2.83 µM)
- MIC Enterococcus faecalis (GC 2691) [3, 13]: 4 µg/mL (≈ 2.83 µM)
- MIC Enterococcus faecalis (GC 3059) [3, 14]: 4 µg/mL (≈ 2.83 µM)
- MIC Enterococcus faecalis (GC 4552) [3, 15]: 4 µg/mL (≈ 2.83 µM)
- MIC Enterococcus faecalis (GC 4553) [3, 16]: 4 µg/mL (≈ 2.83 µM)
- MIC Enterococcus faecalis (GC 4554) [3, 17]: 4 µg/mL (≈ 2.83 µM)
- MIC Enterococcus faecalis (GC 6189) [3, 18]: 4 µg/mL (≈ 2.83 µM)
- MIC Enterococcus faecium (GC 2243) ([3]; Enterococcus faecium (GC 2243)): 4 µg/mL (≈ 2.83 µM)
- MIC Enterococcus faecium (GC 4556) ([3]; Enterococcus faecium (GC 4556)): 4 µg/mL (≈ 2.83 µM)
- MIC Enterococcus faecium (GC 4557) ([3]; Enterococcus faecium (GC 4557)): 4 µg/mL (≈ 2.83 µM)
- MIC Enterococcus avium (GC 4558) [3, 10]: 4 µg/mL (≈ 2.83 µM)
- MIC Enterococcus faecalis (ATCC 29212) [3, 10]: 4 µg/mL (≈ 2.83 µM)
- MIC Enterococcus faecalis (GC 2242) [3, 10]: 4 µg/mL (≈ 2.83 µM)
- MIC Enterococcus faecalis (GC 2691) [3, 10]: 4 µg/mL (≈ 2.83 µM)
- MIC Enterococcus faecalis (GC 3059) [3, 10]: 4 µg/mL (≈ 2.83 µM)
- MIC Enterococcus faecalis (GC 4552) [3, 10]: 4 µg/mL (≈ 2.83 µM)
- MIC Enterococcus faecalis (GC 4553) [3, 10]: 4 µg/mL (≈ 2.83 µM)
- MIC Enterococcus faecalis (GC 4554) [3, 10]: 4 µg/mL (≈ 2.83 µM)
- MIC Enterococcus faecalis (GC 6189) [3, 10]: 4 µg/mL (≈ 2.83 µM)
- MIC Enterococcus faecium (GC 2243) [3, 10]: 4 µg/mL (≈ 2.83 µM)
- MIC Enterococcus faecium (GC 4556) [3, 10]: 4 µg/mL (≈ 2.83 µM)
- MIC Enterococcus faecium (GC 4557) [3, 10]: 4 µg/mL (≈ 2.83 µM)
- MIC Escherichia coli (ATCC 25922) [4]: 32 µg/mL (≈ 22.6 µM)
- MIC Escherichia coli (GC 4559) [4]: 16 µg/mL (≈ 11.3 µM)
- MIC Escherichia coli (GC 4560) [4]: 2 µg/mL (≈ 1.41 µM)

SMILES: CC(c1ccccc1)C1NC(=O)CNC(=O)C(CO)NC(=O)C(C(O)C2CNC(=N)N2C2OC(CO)C(O)C(O)C2O)NC(=O)C(C(O)C2CNC(=N)N2)NC(=O)C(Cc2ccc(OC3OC(CO)C(OC4OC5COC6(CCSCC6)OC5C(O)C4O)C(O)C3O)cc2)NC1=O (stereo not drawn) [Example 217, Cyclo[glycyl-β-methylphenylalanyl-O-[4-O-[4,6-O-(tetrahydrothiopyran-4-ylidene)hexopyranosyl]hexopyranosyl]tyrosyl-3-(2-iminoimidazolidin-4-yl)seryl-3-(3-hexopyranosyl-2-iminoimidazolidin-4-yl)serylseryl]]
- MIC Streptococcus agalactiae (GC 4564) [1, 5]: 2 µg/mL (≈ 1.44 µM)
- MIC Streptococcus pneumoniae (ATCC 6301) [1, 6]: 1 µg/mL (≈ 0.718 µM)
- MIC Streptococcus pneumoniae (GC 1894) [1, 7]: 0.25 µg/mL (≈ 0.179 µM)
- MIC Streptococcus pneumoniae (GC 4565) [1, 8]: 0.5 µg/mL (≈ 0.359 µM)
- MIC Streptococcus pyogenes (GC 4563) [1, 9]: 1 µg/mL (≈ 0.718 µM)
- MIC Streptococcus agalactiae (GC 4564) [1, 10]: 2 µg/mL (≈ 1.44 µM)
- MIC Streptococcus pneumoniae (ATCC 6301) [1, 10]: 1 µg/mL (≈ 0.718 µM)
- MIC Streptococcus pneumoniae (GC 1894) [1, 10]: 0.25 µg/mL (≈ 0.179 µM)
- MIC Streptococcus pneumoniae (GC 4565) [1, 10]: 0.5 µg/mL (≈ 0.359 µM)
- MIC Streptococcus pyogenes (GC 4563) [1, 10]: 1 µg/mL (≈ 0.718 µM)
- MIC Staphylococcus aureus (ATCC 29213) [2]: 4 µg/mL (≈ 2.87 µM)
- MIC Staphylococcus aureus (GC 1131) [2]: 4 µg/mL (≈ 2.87 µM)
- MIC Staphylococcus aureus (GC 3051) [2]: 4 µg/mL (≈ 2.87 µM)
- MIC Staphylococcus aureus (GC 3053) [2]: 8 µg/mL (≈ 5.74 µM)
- MIC Staphylococcus aureus (GC 4541) [2]: 4 µg/mL (≈ 2.87 µM)
- MIC Staphylococcus aureus (GC 4542) [2]: 4 µg/mL (≈ 2.87 µM)
- MIC Staphylococcus aureus-SMITH (GC 4543) [2]: 2 µg/mL (≈ 1.44 µM)
- MIC Staphylococcus aureus (GC 4544) [2]: 8 µg/mL (≈ 5.74 µM)
- MIC Staphylococcus aureus (GC 4545) [2]: 4 µg/mL (≈ 2.87 µM)
- MIC Staphylococcus haemolyticus (GC 4546) [2]: 2 µg/mL (≈ 1.44 µM)
- MIC Coagulase Negative Staphylococcus (GC 4547) [2]: 4 µg/mL (≈ 2.87 µM)
- MIC Coagulase Negative Staphylococcus (GC 4548) [2]: 1 µg/mL (≈ 0.718 µM)
- MIC Coagulase Negative Staphylococcus (GC 4549) [2]: 2 µg/mL (≈ 1.44 µM)
- MIC Coagulase Negative Staphylococcus (GC 4551) [2]: 8 µg/mL (≈ 5.74 µM)
- MIC Enterococcus avium (GC 4558) ([3]; Enterococcus avium (GC 4558)): 16 µg/mL (≈ 11.5 µM)
- MIC Enterococcus faecalis (ATCC 29212) [3, 11]: 16 µg/mL (≈ 11.5 µM)
- MIC Enterococcus faecalis (GC 2242) [3, 12]: 16 µg/mL (≈ 11.5 µM)
- MIC Enterococcus faecalis (GC 2691) [3, 13]: 16 µg/mL (≈ 11.5 µM)
- MIC Enterococcus faecalis (GC 3059) [3, 14]: 32 µg/mL (≈ 23 µM)
- MIC Enterococcus faecalis (GC 4552) [3, 15]: 16 µg/mL (≈ 11.5 µM)
- MIC Enterococcus faecalis (GC 4553) [3, 16]: 32 µg/mL (≈ 23 µM)
- MIC Enterococcus faecalis (GC 4554) [3, 17]: 32 µg/mL (≈ 23 µM)
- MIC Enterococcus faecalis (GC 6189) [3, 18]: 16 µg/mL (≈ 11.5 µM)
- MIC Enterococcus faecium (GC 2243) ([3]; Enterococcus faecium (GC 2243)): 16 µg/mL (≈ 11.5 µM)
- MIC Enterococcus faecium (GC 4556) ([3]; Enterococcus faecium (GC 4556)): 16 µg/mL (≈ 11.5 µM)
- MIC Enterococcus faecium (GC 4557) ([3]; Enterococcus faecium (GC 4557)): 8 µg/mL (≈ 5.74 µM)
- MIC Enterococcus avium (GC 4558) [3, 10]: 16 µg/mL (≈ 11.5 µM)
- MIC Enterococcus faecalis (ATCC 29212) [3, 10]: 16 µg/mL (≈ 11.5 µM)
- MIC Enterococcus faecalis (GC 2242) [3, 10]: 16 µg/mL (≈ 11.5 µM)
- MIC Enterococcus faecalis (GC 2691) [3, 10]: 16 µg/mL (≈ 11.5 µM)
- MIC Enterococcus faecalis (GC 3059) [3, 10]: 32 µg/mL (≈ 23 µM)
- MIC Enterococcus faecalis (GC 4552) [3, 10]: 16 µg/mL (≈ 11.5 µM)
- MIC Enterococcus faecalis (GC 4553) [3, 10]: 32 µg/mL (≈ 23 µM)
- MIC Enterococcus faecalis (GC 4554) [3, 10]: 32 µg/mL (≈ 23 µM)
- MIC Enterococcus faecalis (GC 6189) [3, 10]: 16 µg/mL (≈ 11.5 µM)
- MIC Enterococcus faecium (GC 2243) [3, 10]: 16 µg/mL (≈ 11.5 µM)
- MIC Enterococcus faecium (GC 4556) [3, 10]: 16 µg/mL (≈ 11.5 µM)
- MIC Enterococcus faecium (GC 4557) [3, 10]: 8 µg/mL (≈ 5.74 µM)
- MIC Escherichia coli (ATCC 25922) [4]: 64 µg/mL (≈ 45.9 µM)
- MIC Escherichia coli (GC 4559) [4]: 32 µg/mL (≈ 23 µM)
- MIC Escherichia coli (GC 4560) [4]: 2 µg/mL (≈ 1.44 µM)
